Reference: the NIST ThermoML archive (doi:10.1021/je060411g)

Assay: molar heat capacity at constant pressure
Conditions: 101.33 kPa

CC(C)C(C)O (stereo unspecified) [3-methyl-2-butanol]
Conditions	molar heat capacity at constant pressure [J/K/mol]
84.8 K, Glass	64.32
85.35 K, Glass	64.92
86.61 K, Glass	65.12
87.96 K, Glass	65.91
88.5 K, Glass	66.12
88.57 K, Glass	66.46
89.76 K, Glass	68.19
90.5 K, Glass	68.52
91.72 K, Glass	69.65
92.44 K, Glass	69.5
93.66 K, Glass	70.82
94.37 K, Glass	70.42
95.6 K, Glass	72.69
96.3 K, Glass	72.33
97.54 K, Glass	73.76
98.24 K, Glass	73.35
99.48 K, Glass	75.44
100.17 K, Glass	75.01
101.42 K, Glass	76.81
102.11 K, Glass	76.45
103.37 K, Glass	78.23
104.06 K, Glass	77.94
105.32 K, Glass	79.77
106 K, Glass	79.31
107.95 K, Glass	80.89
109.9 K, Glass	82.57
110.42 K, Glass	83.46
110.85 K, Glass	82.24
111.85 K, Glass	84.29
112.07 K, Glass	84.44
113.8 K, Glass	85.97
114.04 K, Glass	86.22
115.76 K, Glass	87.69
116 K, Glass	87.96
117.71 K, Glass	89.53
119.67 K, Glass	91.4
121.44 K, Glass	93.27
121.62 K, Glass	93.55
122.07 K, Glass	94.36
123.27 K, Glass	95.77
123.58 K, Glass	95.92
125.24 K, Glass	98.99
125.53 K, Glass	98.88
127.2 K, Glass	102.7
127.49 K, Glass	103.22
129.14 K, Glass	107.45
134.82 K, Liquid	136.07
135.09 K, Liquid	140.35
136.74 K, Liquid	138.24
137.01 K, Liquid	138.6
138.7 K, Liquid	138.95
138.97 K, Liquid	138.85
140.69 K, Liquid	139.38
140.95 K, Liquid	139.07
142.67 K, Liquid	139.54
142.93 K, Liquid	139.3
144.66 K, Liquid	139.76
144.91 K, Liquid	139.63
146.65 K, Liquid	140.2
146.9 K, Liquid	139.94
148.63 K, Liquid	140.52
148.88 K, Liquid	140.31
150.86 K, Liquid	140.31
152.85 K, Liquid	140.9
154.84 K, Liquid	141.35
156.74 K, Liquid	142.41
156.82 K, Liquid	141.64
158.09 K, Liquid	142.73
158.81 K, Liquid	142.09
160.22 K, Liquid	143.13
160.79 K, Liquid	142.41
162.32 K, Liquid	143.63
162.78 K, Liquid	142.9
164.37 K, Liquid	144.12
164.76 K, Liquid	143.07
166.39 K, Liquid	145.96
166.75 K, Liquid	143.51
168.38 K, Liquid	145.62
168.73 K, Liquid	143.97
170.37 K, Liquid	146.06
170.72 K, Liquid	144.62
172.37 K, Liquid	145.89
172.7 K, Liquid	145.15
174.37 K, Liquid	146.25
174.69 K, Liquid	145.71
176.36 K, Liquid	147.39
176.67 K, Liquid	146.37
178.34 K, Liquid	147.47
178.66 K, Liquid	147.29
180.33 K, Liquid	147.95
180.64 K, Liquid	148.09
182.33 K, Liquid	148.74
182.63 K, Liquid	149.07
184.32 K, Liquid	149.21
184.61 K, Liquid	149.6
186.31 K, Liquid	149.62
186.6 K, Liquid	150.32
188.3 K, Liquid	149.99
188.59 K, Liquid	150.72
190.3 K, Liquid	150.82
190.58 K, Liquid	151.56
192.29 K, Liquid	151.37
192.57 K, Liquid	152.24
194.28 K, Liquid	152
194.56 K, Liquid	152.93
196.27 K, Liquid	152.73
196.55 K, Liquid	153.74
198.26 K, Liquid	153.78
198.54 K, Liquid	154.39
200.25 K, Liquid	154.7
200.53 K, Liquid	155.32
202.24 K, Liquid	155.43
202.51 K, Liquid	156.2
204.23 K, Liquid	156.17
204.5 K, Liquid	157.11
206.21 K, Liquid	156.91
206.48 K, Liquid	158.08
208.2 K, Liquid	157.81
208.47 K, Liquid	159.14
210.18 K, Liquid	158.87
210.46 K, Liquid	160.17
212.17 K, Liquid	159.83
214.15 K, Liquid	160.86
216.12 K, Liquid	161.85
218.08 K, Liquid	163.18
220.04 K, Liquid	164.39
221.99 K, Liquid	165.9
223.93 K, Liquid	167.49
225.86 K, Liquid	168.89
227.79 K, Liquid	170.77
229.71 K, Liquid	172.05
231.62 K, Liquid	173.69
233.53 K, Liquid	175.59
235.43 K, Liquid	177.3
237.32 K, Liquid	178.86
239.2 K, Liquid	180.5
241.08 K, Liquid	182.29
242.96 K, Liquid	184.02
244.82 K, Liquid	185.3
246.68 K, Liquid	187.07
248.53 K, Liquid	188.6
250.37 K, Liquid	190.8
252.21 K, Liquid	192.67
254.03 K, Liquid	194.25
255.85 K, Liquid	196.29
257.67 K, Liquid	198.36
259.47 K, Liquid	200.36
261.27 K, Liquid	202.49
263.06 K, Liquid	204.59
264.84 K, Liquid	206.44
266.62 K, Liquid	208.79
268.39 K, Liquid	210.85
270.15 K, Liquid	212.97
271.91 K, Liquid	215.09
273.66 K, Liquid	217.48
275.41 K, Liquid	219.86
277.14 K, Liquid	222.01
278.87 K, Liquid	224.26
280.6 K, Liquid	226.68
282.31 K, Liquid	228.97
284.02 K, Liquid	230.98
285.72 K, Liquid	233.15
287.42 K, Liquid	234.9
289.11 K, Liquid	237.64
290.79 K, Liquid	239.38
292.47 K, Liquid	241.39
294.15 K, Liquid	243.38
295.81 K, Liquid	245.77
297.47 K, Liquid	247.45
299.13 K, Liquid	249.65
300.78 K, Liquid	250.94
